Reference: patent EP1080724A1, “MTP ACTIVITY-LOWERING COMPOSITIONS” (Nippon Shinyaku Co., Ltd., priority 1998, dated 1999)
Where a name gives a salt, the structure may show the parent alone.

Columns and labels:
HepG2 cells [1] = experiment: TG antisecretory activity: secreted triglyceride from labeled lipid in medium; type: cell-based; conditions: 10 µM, 24 hours of culture, control group 161.2± 2.2
Experimental: HepG2 cells were cultured in DME medium supplemented with 1% BSA and 0.5 mM oleic acid for 24 hours. Then, the medium was changed to 1% BSA-DME containing 10 µM of the amino acid of the invention and simultaneously 0.5 µci of [^14C] acetic acid was added. The cells and medium were recovered after 24 hours of culture. The recovered cells were homogenized by sonication, and after quantitation of protein, the amount of secreted triglyceride (TG) was determined from the amount of labeled lipid in the medium.

MTP = MTP activity-lowering activity (MTP activity in liver homogenate of orally dosed rats, method of Wetterau); type: in vivo; conditions: SD rats, control group 9.09±1.0
Experimental: SD rats weighing about 200 g in groups of 6 were given 20 mg or 60 mg of the hydrochloride of the amino acid of the invention in 10 ml of water in 3 divided doses daily for 2 weeks. Thereafter, the liver was excised and homogenized using a homogenizing buffer (50 mM Tris (pH 7.4), 50 mM potassium chloride, […], leupeptin (5 µg/ml) and 2 mM phenylmethylsulfonyl fluoride) and the homogenate was centrifuged to give a liver homogenate. This liver homogenate was adjusted to a protein concentration of about 2 mg/mL with the same homogenizing buffer and 1 part of deoxycholate solution (0.56%, pH 7.5) was added to 10 parts of the homogenate. The reaction was then carried out at 4°C for 30 minutes, whereby MTP was liberated from the microsomal fraction. The membrane fraction was then removed by centrifugation to give a supernatant. This supernatant was diluted with Tris buffer (a buffer solution containing 15 mM Tris (pH 7.4), 40 mM NaCl, 1 mM EDTA, 0.02% NaN3) and dialyzed against the same buffer at 4°C overnight. The dialysate thus obtained was analyzed for MTP activity by the method of J. R. Wetterau [Science, 258, 999 (1992)].

HepG2 cells [2] = experiment: Apo B antisecretory activity (1): apo B secreted into medium, ELISA; type: cell-based, human; conditions: for Apo B secretions (µg/well): HepG2 cells, 24 hours culture, control group 9.92±0.80
Experimental: HepG2 cells (100×10^4 cells/dish) were sown on 3.5 cm dishes and precultured using 1 ml DME (containing 10% FCS) medium per dish. Following this preculture, the cells were washed with DME medium twice, added to the test medium, and cultured at 37°C under 95% air-5% carbon dioxide for 24 hours. The test medium was prepared by dissolving cycloalliin in dimethyl sulfoxide and diluted with DME medium containing 1% BSA and 0.5 mM oleic acid to a final cycloalliin concentration of 10^-6 M or 10^-4 M.
After 24 hours' culture, the medium was recovered and the amount of apo B secreted into the medium was determined by ELISA. Thus, anti-human apo B antibody (a 100-fold dilution) was distributed into a 96-well ELISA plate, 100 µL per well, and incubated at 37°C for 2 hours. Then, 100 µL/well of Block Ace was added and the plate was further incubated at 37°C for 2 hours. The wells were washed with PBS-Tween × 3 and 100 µL each of apo B standard solution and HepG2 culture were added, followed by further incubation at 4°C for 16 hours. After the wells were washed with PBS-Tween × 3, 100 µL/well of anti-human apo B marker antibody (a 200-fold dilution) was added and the plate was incubated at 37°C for 2 hours. The wells were washed with PBS-Tween × 3, then 100 µL/well of the substrate solution was added, and the plate was incubated at 25°C for 30 minutes. The reaction was stopped by adding 50 µL of 4.5 M H2SO4 and the absorbance at 482 nm was measured to estimate the amount of apo B secretion.

HepG2 cells [3] = experiment: Apo B antisecretory activity (2): apo B secretions, ELISA; type: cell-based; conditions: 10 µM; for Apo B secretions (ng/mg protein) After 24 hr of culture: control group 2544±425; for Apo B secretions After 24 hr of culture (%) / Apo B secretions After 48 hr of culture (%): percent of control group (100); for Apo B secretions (ng/mg protein) After 48 hr of culture: control group 2080±110
Experimental: HepG2 cells were cultured in DME medium supplemented with 1% BSA and 0.5 mM oleic acid for 24 hours. Then, the medium was changed to 1% BSA-DME medium containing 10 µM of the amino acid of the invention and 0.5 µci of [^14C] acetic acid was simultaneously added. The cells and medium were recovered after 24 hours or 48 hours of culture. The recovered cells were homogenized by sonication, and after quantitation of protein, the amount of apo B secretions was determined by ELISA.

[4] = 60 mg in 10 ml of water in 3 divided doses daily for 2 weeks

C[S+]([O-])CCC(N)C(=O)O (racemic) [DL-methionine sulfoxide]
TG secretions ([^14C]dpm × 10^-2/mg protein) (HepG2 cells [1]): 72.1± 8.5 [^14C]dpm × 10^-2/mg protein

C[C@H]1C[S@+]([O-])C[C@@H](C(=O)O)N1 [Cycloalliin HCl, (1S,3R,5S)-5-methyl-1,4-thiazane-3-carboxylic acid 1-oxide]
MTP activity (%) (MTP; 20 mg in 10 ml of water in 3 divided doses daily for 2 weeks): 6.12±0.7 % | MTP activity (%) (MTP; [4]): 4.92±1.0 %

C[C@H]1C[S@+]([O-])C[C@@H](C(=O)O)N1 [Cycloalliin, (1S,3R,5S)-5-methyl-1,4-thiazane-3-carboxylic acid 1-oxide]
Apo B secretions (µg/well) (HepG2 cells [2]; 10^-4 M): 7.67±1.31 µg/well | Apo B secretions (µg/well) (HepG2 cells [2]; 10^-6 M): 7.54±1.13 µg/well | apo B secretion (result in words) (HepG2 cells [2]; summary of Table 2): significant suppression

CCSC[C@H](N)C(=O)O [S-ethyl-L-cysteine]
TG secretions ([^14C]dpm × 10^-2/mg protein) (HepG2 cells [1]): 102.2± 7.1 [^14C]dpm × 10^-2/mg protein | Apo B secretions (ng/mg protein) After 24 hr of culture (HepG2 cells [3]): 2390±615 ng/mg protein | Apo B secretions After 24 hr of culture (%) (HepG2 cells [3]): 93.9% | Apo B secretions (ng/mg protein) After 48 hr of culture (HepG2 cells [3]): 994±111 ng/mg protein | Apo B secretions After 48 hr of culture (%) (HepG2 cells [3]): 47.8%

CSC[C@H](N)C(=O)O [S-methyl-L-cysteine HCl, S-methyl-L-cysteine]
MTP activity (%) (MTP; [4]): 5.68±0.6 %

CSC[C@H](N)C(=O)O [S-methyl-L-cysteine]
TG secretions ([^14C]dpm × 10^-2/mg protein) (HepG2 cells [1]): 128.2±14.6 [^14C]dpm × 10^-2/mg protein | Apo B secretions (ng/mg protein) After 24 hr of culture (HepG2 cells [3]): 2511±173 ng/mg protein | Apo B secretions After 24 hr of culture (%) (HepG2 cells [3]): 98.7% | Apo B secretions (ng/mg protein) After 48 hr of culture (HepG2 cells [3]): 1906±122 ng/mg protein | Apo B secretions After 48 hr of culture (%) (HepG2 cells [3]): 91.6%

CCCSC[C@H](N)C(=O)O [S-n-propyl-L-cysteine]
TG secretions ([^14C]dpm × 10^-2/mg protein) (HepG2 cells [1]): 99.0± 9.3 [^14C]dpm × 10^-2/mg protein | Apo B secretions (ng/mg protein) After 24 hr of culture (HepG2 cells [3]): 2157± 86 ng/mg protein | Apo B secretions After 24 hr of culture (%) (HepG2 cells [3]): 84.8% | Apo B secretions (ng/mg protein) After 48 hr of culture (HepG2 cells [3]): 555± 23 ng/mg protein | Apo B secretions After 48 hr of culture (%) (HepG2 cells [3]): 26.7%

S-methyl-L-cysteine sulfoxide [S-methyl-L-cysteine sulfoxide HCl]
MTP activity (%) (MTP; [4]): 5.43±0.6 %

S-n-propyl-L-cysteine sulfoxide
TG secretions ([^14C]dpm × 10^-2/mg protein) (HepG2 cells [1]): 105.8±18.9 [^14C]dpm × 10^-2/mg protein
